In brackets after ≈: the same amount, converted by molar mass.
Legend:
Assay in all cases: Minimum Inhibitory Concentration (MIC), agar dilution, standard strains
[1] = system: Staphylococcus aureus giorgio; format: cell-based; conditions: Table 1, Mueller-Hinton agar, 37° C., 20 hours; for MIC: Staphylococcus aureus, read-out: Minimum Inhibitory Concentration, Staphylococcus aureus giorgio
Method: (§1) The effectiveness of the compound according to the present invention was determined by obtaining Minimum Inhibitory Concentration (MIC) of the compounds prepared by the above examples (Compounds I-1 to I-41) and vancomycin, which is the known compound having a potent activity against gram-positive strains, as the control drug against the standard strains. Specifically, Minimum Inhibitory Concentration was obtained by diluting the test compound according to a double dilution method, dispersing them in Mueller-Hinton agar medium, inoculating each of the test strain having 10^7 cfu (colony forming unit) per ml in an amount of 2 μl to the medium and then incubating them at 37° C. for 20 hours. From the result of Minimum Inhibitory Concentration test, it can be seen that the compound according to the present invention has a good activity against major pathogenic microorganisms, which cause hospital infection, including MRSA strains.

S. epidermidis R005 = format: cell-based; conditions: Table 1, Mueller-Hinton agar, 37° C., 20 hours; for MIC: Staphylococcus epidermidis, R005, read-out: Minimum Inhibitory Concentration, S. epidermidis R005
Method: as §1

E. faecalis L239 = format: cell-based; conditions: Table 1, Mueller-Hinton agar, 37° C., 20 hours; for MIC: Enterococcus faecalis, L239, read-out: Minimum Inhibitory Concentration, E. faecalis L239
Method: as §1

S. aureus 241 = format: cell-based, Staphylococcus aureus; conditions: Table 1, Mueller-Hinton agar, 37° C., 20 hours; for MIC: Staphylococcus aureus, 241, read-out: Minimum Inhibitory Concentration, S. aureus 241
Method: as §1

S. aureus 77 = format: cell-based, Staphylococcus aureus; conditions: Table 1, Mueller-Hinton agar, 37° C., 20 hours; for MIC: Staphylococcus aureus, 77, read-out: Minimum Inhibitory Concentration, S. aureus 77
Method: as §1

| Molecule | Minimum Inhibitory Concentration, Staphylococcus aureus giorgio [1] | Minimum Inhibitory Concentration, S. epidermidis R005 (S. epidermidis R005) | Minimum Inhibitory Concentration, E. faecalis L239 (E. faecalis L239) | Minimum Inhibitory Concentration, S. aureus 241 (S. aureus 241) | Minimum Inhibitory Concentration, S. aureus 77 (S. aureus 77) | MIC [1] | MIC (S. epidermidis R005) | MIC (E. faecalis L239) | MIC (S. aureus 241) | MIC (S. aureus 77) |
| --- | --- | --- | --- | --- | --- | --- | --- | --- | --- | --- |
| 4,6-diamino-1-{(E)-3-[(6R,7R)-2-carboxy-7-({2-[(2,5-dichlorophenyl)sulfanyl]acetyl}amino)-8-oxo-5-thia-1-azabicyclo[4.2.0]oct-2-en-3-yl]-2-propenyl}-5-methylpyrimidin-1-ium [Compound I-40] | 0.016 µg/mL | 0.25 µg/mL | 2 µg/mL | 8 µg/mL | 1 µg/mL | – | – | – | – | – |
| 4-amino-1-{(E)-3-[(6R,7R)-2-carboxy-7-({2-[(2,5-dichlorophenyl)sulfanyl]acetyl}amino)-8-oxo-5-thia-1-azabicyclo[4.2.0]oct-2-en-3-yl]-2-propenyl}-2-methyl pyrimidin-1-ium [Compound I-39] | <0.008 µg/mL | 0.063 µg/mL | 0.5 µg/mL | 2 µg/mL | 0.25 µg/mL | – | – | – | – | – |
| Nc1nc(O)cc(SC/C=C/C2=C(C(=O)O)N3C(=O)[C@@H](NC(=O)CSc4cc(Cl)ccc4Cl)[C@H]3SC2)n1 [Compound I-1, (6R,7R)-3-{(E)-3-[(2-amino-6-hydroxy-4-pyrimidinyl)sulfanyl]-1-propenyl}-7-({2-[(2,5-dichlorophenyl)sulfanyl]acetyl}amino)-8-oxo-5-thia-1-azabicyclo[4.2.0]oct-2-ene-2-carboxylic acid] | – | – | – | – | – | < 0.008 µg/mL | 0.13 µg/mL (≈ 0.216 µM) | 0.25 µg/mL (≈ 0.416 µM) | 4 µg/mL (≈ 6.66 µM) | 0.25 µg/mL (≈ 0.416 µM) |
| Nc1cc[n+](C/C=C/C2=C(C(=O)O)N3C(=O)[C@@H](NC(=O)CSc4cc(Cl)ccc4Cl)[C@H]3SC2)cn1 [Compound I-2, 4-amino-1-{(E)-3-[(6R,7R)-2-carboxy-7-({2-[(2,5-dichlorophenyl)sulfanyl]acetyl}amino)-8-oxo-5-thia-1-azabicyclo[4.2.0]oct-2-en-3-yl]-2-propenyl}pyrimidin-1-ium] | <0.008 µg/mL | 0.25 µg/mL | 1 µg/mL | 4 µg/mL | 0.25 µg/mL | – | – | – | – | – |
| Nc1cc(SC/C=C/C2=C(C(=O)O)N3C(=O)[C@@H](NC(=O)CSc4cc(Cl)ccc4Cl)[C@H]3SC2)nc(N)n1 [Compound I-3, (6R,7R)-3-{(E)-3-[(2,6-diamino-4-pyrimidinyl)sulfanyl]-1-propenyl}-7-({2-[(2,5-dichlorophenyl)sulfanyl]acetyl}amino)-8-oxo-5-thia-1-azabicyclo[4.2.0]oct-2-ene-2-carboxylic acid] | – | – | – | – | – | < 0.008 µg/mL | 0.13 µg/mL (≈ 0.217 µM) | 0.5 µg/mL (≈ 0.834 µM) | 4 µg/mL (≈ 6.67 µM) | 0.13 µg/mL (≈ 0.217 µM) |
| Nc1cc[n+](N)c(SC/C=C/C2=C(C(=O)O)N3C(=O)[C@@H](NC(=O)CSc4cc(Cl)ccc4Cl)[C@H]3SC2)n1 [Compound I-4, 1,4-diamino-2-({(E)-3-[(6R,7R)-2-carboxy-7-({2-[(2,5-dichlorophenyl)sulfanyl]acetyl}amino)-8-oxo-5-thia-1-azabicyclo[4.2.0]oct-2-en-3-yl]-2-propenyl}sulfanyl) pyrimidin-1-ium] | <0.008 µg/mL | 0.13 µg/mL | 0.5 µg/mL | 1 µg/mL | 0.13 µg/mL | – | – | – | – | – |
| Nc1cc(SC/C=C/C2=C(C(=O)O)N3C(=O)[C@@H](NC(=O)CNc4cc(Cl)ccc4Cl)[C@H]3SC2)nc(N)n1 [Compound I-5] | 0.031 µg/mL | 0.5 µg/mL | 1 µg/mL | 16 µg/mL | 0.5 µg/mL | – | – | – | – | – |
| Nc1cc[n+](N)c(SCC2=C(C(=O)O)N3C(=O)[C@@H](NC(=O)CSc4cc(Cl)ccc4Cl)[C@H]3SC2)n1 [Compound I-6, 1,4-diamino-2-({[(6R,7R)-2-carboxy-7-({2-[(2,5-dichlorophenyl)sulfanyl]acetyl}amino)-8-oxo-5-thia-1-azabicyclo[4.2.0]oct-2-en-3-yl]methyl}sulfanyl)pyrimidin-1-ium] | <0.008 µg/mL | 0.063 µg/mL | 4 µg/mL | 4 µg/mL | 0.031 µg/mL | – | – | – | – | – |
| Nc1nc(SC/C=C/C2=C(C(=O)O)N3C(=O)[C@@H](NC(=O)CSc4cc(Cl)ccc4Cl)[C@H]3SC2)nc2c1CCC2 [Compound I-20, (6R,7R)-3-{(E)-3-[(4-amino-6,7-dihydro-5H-cyclopenta[d]pyrimidin-2-yl)sulfanyl]-1-propenyl}-7-({2-[(2,5-dichlorophenyl)sulfanyl]acetyl}amino)-8-oxo-5-thia-1-azabicyclo[4.2.0]oct-2-ene-2-carboxylic acid] | – | – | – | – | – | 0.063 µg/mL (≈ 0.101 µM) | 2 µg/mL (≈ 3.2 µM) | 2 µg/mL (≈ 3.2 µM) | 32 µg/mL (≈ 51.2 µM) | 2 µg/mL (≈ 3.2 µM) |
| Nc1nc(SC/C=C/C2=C(C(=O)O)N3C(=O)[C@@H](NC(=O)CSc4cc(Cl)ccc4Cl)[C@H]3SC2)c2c([n+]1N)CCC2 [Compound I-21] | <0.008 µg/mL | 0.063 µg/mL | 0.25 µg/mL | 1 µg/mL | 0.063 µg/mL | – | – | – | – | – |
| C[n+]1c(N)cc(SC/C=C/C2=C(C(=O)O)N3C(=O)[C@@H](NC(=O)CSc4cc(Cl)ccc4Cl)[C@H]3SC2)nc1N [Compound I-22, (6R,7R)-2,6-diamino-4-({(E)-3-[2-carboxy-7-({2-[(2,5-dichlorophenyl)sulfanyl]acetyl}amino)-8-oxo-5-thia-1-azabicyclo[4.2.0]oct-2-en-3-yl]-2-propenyl}sulfanyl)-1-methylpyrimidin-1-ium] | <0.008 µg/mL | 0.063 µg/mL | 0.25 µg/mL | 1 µg/mL | 0.063 µg/mL | – | – | – | – | – |
| CNCc1c(N)nc(SC/C=C/C2=C(C(=O)O)N3C(=O)[C@@H](NC(=O)CSc4cc(Cl)ccc4Cl)[C@H]3SC2)[n+](C)c1N [Compound I-23, (6R,7R)-4,6-diamino-2-({(E)-3-[2-carboxy-7-({2-[(2,5-dichlorophenyl)sulfanyl]acetyl}amino)-8-oxo-5-thia-1-azabicyclo[4.2.0]oct-2-en-3-yl]-2-propenyl}sulfanyl)-1-methyl-5-[(methylamino)methyl]pyrimidin-1-ium] | 0.016 µg/mL | 0.25 µg/mL | 1 µg/mL | 4 µg/mL | 0.25 µg/mL | – | – | – | – | – |
| Nc1cc(N)nc(SC/C=C/C2=C(C(=O)O)N3C(=O)[C@@H](NC(=O)CSc4cc(Cl)ccc4Cl)[C@H]3SC2)n1 [Compound I-24, (6R,7R)-3-{(E)-3-[(4,6-diamino-2-pyrimidinyl)sulfanyl]-1-propenyl}-7-({2-[(2,5-dichlorophenyl)sulfanyl]acetyl}amino)-8-oxo-5-thia-1-azabicyclo[4.2.0]oct-2-ene-2-carboxylic acid] | – | – | – | – | – | 0.016 µg/mL (≈ 0.0267 µM) | 0.13 µg/mL (≈ 0.217 µM) | 0.5 µg/mL (≈ 0.834 µM) | 4 µg/mL (≈ 6.67 µM) | 0.25 µg/mL (≈ 0.417 µM) |
| Nc1ncnc(SC/C=C/C2=C(C(=O)O)N3C(=O)[C@@H](NC(=O)CSc4cc(Cl)ccc4Cl)[C@H]3SC2)c1N [Compound I-25, (6R,7R)-3-{(E)-3-[(5,6-diamino-4-pyrimidinyl)sulfanyl]-1-propenyl}-7-({2-[(2,5-dichlorophenyl)sulfanyl]acetyl}amino)-8-oxo-5-thia-1-azabicyclo[4.2.0]oct-2-ene-2-carboxylic acid] | – | – | – | – | – | 0.063 µg/mL (≈ 0.105 µM) | 1 µg/mL (≈ 1.67 µM) | 2 µg/mL (≈ 3.34 µM) | 16 µg/mL (≈ 26.7 µM) | 0.5 µg/mL (≈ 0.834 µM) |
| Cc1c(N)nc(SC/C=C/C2=C(C(=O)O)N3C(=O)[C@@H](NC(=O)CSc4cc(Cl)ccc4Cl)[C@H]3SC2)nc1N [Compound I-26, (6R,7R)-3-{(E)-3-[(4,6-diamino-5-methyl-2-pyrimidinyl)sulfanyl]-1-propenyl}-7-({2-[(2,5-dichlorophenyl)sulfanyl]acetyl}amino)-8-oxo-5-thia-1-azabicyclo[4.2.0]oct-2-ene-2-carboxylic acid] | – | – | – | – | – | 0.13 µg/mL (≈ 0.212 µM) | 2 µg/mL (≈ 3.26 µM) | 2 µg/mL (≈ 3.26 µM) | 16 µg/mL (≈ 26.1 µM) | 1 µg/mL (≈ 1.63 µM) |
| O=C(CSc1cc(Cl)ccc1Cl)N[C@@H]1C(=O)N2C(C(=O)O)=C(/C=C/CSc3ncnc4[nH]ncc34)CS[C@H]12 [Compound I-27] | <0.008 µg/mL | 0.13 µg/mL | 0.13 µg/mL | 2 µg/mL | 0.13 µg/mL | – | – | – | – | – |

From patent publication US20030162762A1, “Novel cephalosporin compounds and process for preparing the same” (priority 2000, published 2003)
